Data on one substance can be found in patent publication US11220534B2, “Treatment of neurological diseases” (Lancaster University Business Enterprises Limited, priority 2016, dated 2022).

Common to all, as to type: in vivo
Test [1] has as its system APP/PS1 transgenic mice. Kind of test: Immunohistochemical measurement of beta-amyloid plaque load in the cortex of APP/PS1 transgenic mice. The text has this: (§1) Animal models have been developed to test novel drugs. A standard model for Alzheimer's disease is transgenic mice that express human mutated genes for amyloid production that are known to induce Alzheimer's disease in humans. These APP/PS1 transgenic mice recapitulate some of the symptoms of Alzheimer's disease such as the aggregation of amyloid in the brain, memory loss and the loss of synapses (Radde et al., 2006).
(§2) The APP/PS1 mice express human Swedish mutated APP and human mutated presenilin-1 which induce Alzheimer's Disease in humans.
(§3) The dose of peptide tested was 10 nmol/kg body weight. The peptides were administered by a once-daily intraperitoneal injection for 8 weeks. Saline injections were administered as a control. Six animals per group were injected with a peptide or a saline control.
Animals (6 per group) were perfused transcardially with 30 ml of ice-cold PBS and 30 ml of ice-cold 4% paraformaldehyde to postfix the brain. The brains were removed and placed in fresh 30% sucrose solution in PBS to cryoprotect tissue and cut at a thickness of 40 μm on a cryostat. Sections were chosen according to stereological rules, with the first section taken at random and every 5th section afterwards. Between 7 and 13 sections were analysed per brain.
Immunostaining techniques were used to assess the neuronal plaque load (anti beta-amyloid rabbit polyclonal antibody (1:200, rabbit polyclonal-Invitrogen 71-5800) and of synaptophysin (polyclonal rabbit anti-synaptophysin primary antibody, 1:2000, Abcam, Cambridge, UK) to measure the amount of synapses in the cortex. Brain samples were first exposed to 99% formic acid for 7 minutes and then washed 3 times for 10 minutes in TBS. Pre-treatment with 99% formic acid is known to drastically increase the detection of beta-Amyloid in formalin-fixed brain samples. Then samples were incubated in 0.3% H2O2 (Sigma Aldrich; Cat.-No.: 516813) in TBS for 30 minutes on the shaker to deplete endogenous peroxides activity, and were 3 times washed in TBS for 10 minutes afterwards.
To increase permeability of membranes in the brain tissue, samples were exposed to 0.3% Triton X-100 (Sigma Aldrich; Cat.-No.: 516813) in TBS for 10 minutes on the shaker. Unspecific proteinophilic binding in the tissue was saturated by incubating the samples with 5% goat serum (Gibco; Cat.-No.: 16210-064) in TBS for 30 minutes on the shaker.
A primary antibody against beta-Amyloid or synaptophysin was added and incubated overnight on the shaker at 4° C. The antibody was polyclonal and raised against a synthetic beta-Amyloid 1-43 peptide in rabbit. The primary antibody was used in a final dilution of 1 to 250 in TBS containing 2% goat serum and […]. […]

In test [2] the test system is C57BL/6 mice given MPTP. Put plainly: Immunohistochemistry for TH in the substantia nigra pars compacta, MPTP Parkinson mouse model. To be noted: 10 nmol/kg i.p. once daily for 2 weeks, FIG. 4, N=6 per group. The text has this:
(§4) A standard model to induce Parkinson like symptoms in mice is the injection of the chemical (MPTP) (Li et al., 2009). This chemical impairs or kills neurons in the brain that produce dopamine. The mice develop motor impairments, and the dopaminergic neurons in the brain are reduced in numbers and function. The enzyme tyrosine hydroxylase (TH) is required to synthesise dopamine. A loss of TH signifies a loss of dopamine production (Harkavyi et al., 2008).
Adult male C57BL/6 mice were given the dopaminergic toxin MPTP (20 mg/kg in 0.1 mL of PBS i.p. at 2-h intervals of 4 doses MPTP; Sigma) or vehicle (PBS) for one day. […]
Immunohistochemistry for TH in the Substantia Nigra Pars Compacta and the Striatum Six animals per group were analysed for expression of tyrosine hydroxylase (TH), a marker for dopamine production. Coronal brain sections (20 μm) from striatum (bregma […]) and SNpc (bregma […]) were analysed by immunohistochemistry using antibodies recognising TH.
Sections were cut on a cryostat and postfixed in 4% paraformaldehyde, washed in PBS, treated with 0.3% H2O2 in methanol for 20 min, and washed again. […] For each animal, three tissue sections from one level of striatum were stained and analysed for TH-positive fibre innervation. […] Two tissue sections from each level were quantified by immunohistochemistry. […]

Test [3] deals with APP/PS1 transgenic mice. Put plainly: Immunohistochemical measurement of synaptic densities (synaptophysin) in the cortex of APP/PS1 transgenic mice. To be noted: 10 nmol/kg i.p. once daily for 8 weeks, FIG. 2, N=6 per group.
From the text: as §1, §2, §3
Animals (6 per group) were perfused transcardially with 30 ml of ice-cold PBS and 30 ml of ice-cold 4% paraformaldehyde to postfix the brain. The brains were removed and placed in fresh 30% sucrose solution in PBS to cryoprotect tissue and cut at a thickness of 40 μm on a cryostat. Sections were chosen according to stereological rules, with the first section taken at random and every 5th section afterwards. Between 7 and 13 sections were analysed per brain. […]

In test [4] the test system is C57BL/6 mice given MPTP. Kind of test: Rotarod motor control test in the MPTP Parkinson mouse model. To be noted: 10 nmol/kg i.p. once daily for 2 weeks, FIG. 3, N=6 per group.
From the text: as §4
Adult male C57BL/6 mice were given the dopaminergic toxin MPTP (20 mg/kg in 0.1 mL of PBS i.p. at 2-h intervals of 4 doses MPTP; Sigma) or vehicle (PBS) for one day. This treatment selectively affects dopaminergic neurons and induces Parkinson-like symptoms in mice.
The dose of peptide tested was 10 nmol/kg body weight. The peptides were administered by a once-daily intraperitoneal injection for 2 weeks. Saline injections were administered as a control. Six animals per group were injected with a peptide or a saline control.
The rotarod consists of a rotating pole that accelerates over time. Mice are placed on the rod, and motor skills are tested by accelerating the rotation. As the rotation increases, animals lose grip and fall on a cushion located below the rod. […] Each animal's endurance time was recorded, and the average was calculated. Data were analysed using a one-way ANOVA with post-hoc Bonferroni tests.

Where no end group is shown, it is not given here. [ ]: non-standard residue; d: D form. Aib = CC(C)(N)C(=O)O

Turning to “YXEGTFTSDYSIYLDKQAAXEFVNWLLAGGPSSGAPPPSKRRQRRKKRGY-NH2 (Y[Aib]EGTFTSDYSIYLDKQAA[Aib]EFVNWLLAGGPSSGAPPPSKRRQRRKKRGY-NH2) [DA5, No. 12; X=aminoisobutyric acid]”, the “beta-amyloid plaque load in the cortex (% area positive for beta amyloid in cross sections of the brain cortex)” value with APP/PS1 transgenic mice [1] (10 nmol/kg body weight, once-daily intraperitoneal injection for 8 weeks, FIG. 1, N=6 per group) is listed as “reduces beta-amyloid plaque load”. Moreover, in the test on APP/PS1 transgenic mice [1] (10 nmol/kg i.p. once daily for 8 weeks, FIG. 1), the “beta-amyloid plaque load compared with the single GIP or GLP-1 analogues” value was “superior to the single GIP or GLP-1 analogues”. The “MPTP-induced reduction of TH in the substantia nigra, pars compacta (protection of dopaminergic neurons)” value in the test on C57BL/6 mice given MPTP [2] is “protected dopaminergic neurons at a greater rate than the single GIP and GLP-1 analogues”. For the same substance, the “synapse loss / synaptic densities in the cortex” value in the test on APP/PS1 transgenic mice [3] was “protected from synapse loss”. In addition, in the test with C57BL/6 mice given MPTP [4], the “impairment of motor skills (rotarod endurance time)” value is recorded as “protect mice from an impairment of motor skills induced by MPTP”.
